Reference: patent US20230365537A1, “POLO LIKE KINASE 4 INHIBITORS” (ORIC Pharmaceuticals, Inc., priority 2021, published 2023)

Assays:
[1] = target: human recombinant Aurora A (Homo sapiens (Human), UniProt O14965); experiment: Aurora A Kinase Biochemical Assay (ADP-Glo); settings: ratio of Aurora A IC50 to PLK4 IC50 (selectivity)
[2] = target: human recombinant Aurora B (Homo sapiens (Human), UniProt Q96GD4); experiment: Aurora B Kinase Biochemical Assay (ADP-Glo); settings: ratio of Aurora B IC50 to PLK4 IC50 (selectivity)
In short: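 IC50 derived by four-parameter nonlinear fit of ADP-Glo luminescence (ADP produced). Compound was preincubated 15 min at RT with 20 nM recombinant human Aurora B, in 50 mM HEPES pH 7.5, 10 mM MgCl2, 1 mM EGTA, 1 mM DTT, 0.01% Brij-35/BSA.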

human recombinant PLK4 = human recombinant PLK4 (Homo sapiens (Human), UniProt O00444); experiment: PLK4 Biochemical Assay (ADP-Glo); settings: 0.5 nM PLK4, 8.0 µM ATP, 4.7 µM MBP, 6 hours at RT
In short: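 Luminescent ADP-Glo detection quantified ADP production, with ATP depletion for 40 min and detection for 30 min at room temperature. Compound and PLK4 (1.0 nM stock addition) were preincubated 15 min in HEPES pH 7.5 buffer containing MgCl2, EGTA, DTT, Brij-35 and BSA. IC50 values were obtained by four-parameter nonlinear regression.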

CHP-134 cells = experiment: CHP134 CellTiter-Glo (CTG) Assay; format: cell-based; settings: Homo sapiens, CHP-134, 120 h, 5 days, viable cells by CellTiter-Glo
In short: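 Nine-point 1:3 dilution series, diluted into growth media, added in quadruplicate to CHP-134 cells plated 16 h earlier at 200 cells/well.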

human recombinant Aurora A, sequence (O14965 whole entry): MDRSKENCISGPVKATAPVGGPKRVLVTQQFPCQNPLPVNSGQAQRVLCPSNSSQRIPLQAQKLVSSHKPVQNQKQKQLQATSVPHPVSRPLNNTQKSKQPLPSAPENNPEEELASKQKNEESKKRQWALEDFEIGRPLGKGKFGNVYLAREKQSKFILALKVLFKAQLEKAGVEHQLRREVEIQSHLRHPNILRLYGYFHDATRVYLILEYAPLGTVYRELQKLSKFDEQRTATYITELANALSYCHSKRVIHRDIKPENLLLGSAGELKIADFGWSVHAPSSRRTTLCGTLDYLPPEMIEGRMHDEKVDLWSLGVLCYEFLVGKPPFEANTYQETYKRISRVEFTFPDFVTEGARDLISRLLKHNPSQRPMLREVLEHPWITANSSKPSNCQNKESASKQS
human recombinant PLK4, sequence (O00444 whole entry): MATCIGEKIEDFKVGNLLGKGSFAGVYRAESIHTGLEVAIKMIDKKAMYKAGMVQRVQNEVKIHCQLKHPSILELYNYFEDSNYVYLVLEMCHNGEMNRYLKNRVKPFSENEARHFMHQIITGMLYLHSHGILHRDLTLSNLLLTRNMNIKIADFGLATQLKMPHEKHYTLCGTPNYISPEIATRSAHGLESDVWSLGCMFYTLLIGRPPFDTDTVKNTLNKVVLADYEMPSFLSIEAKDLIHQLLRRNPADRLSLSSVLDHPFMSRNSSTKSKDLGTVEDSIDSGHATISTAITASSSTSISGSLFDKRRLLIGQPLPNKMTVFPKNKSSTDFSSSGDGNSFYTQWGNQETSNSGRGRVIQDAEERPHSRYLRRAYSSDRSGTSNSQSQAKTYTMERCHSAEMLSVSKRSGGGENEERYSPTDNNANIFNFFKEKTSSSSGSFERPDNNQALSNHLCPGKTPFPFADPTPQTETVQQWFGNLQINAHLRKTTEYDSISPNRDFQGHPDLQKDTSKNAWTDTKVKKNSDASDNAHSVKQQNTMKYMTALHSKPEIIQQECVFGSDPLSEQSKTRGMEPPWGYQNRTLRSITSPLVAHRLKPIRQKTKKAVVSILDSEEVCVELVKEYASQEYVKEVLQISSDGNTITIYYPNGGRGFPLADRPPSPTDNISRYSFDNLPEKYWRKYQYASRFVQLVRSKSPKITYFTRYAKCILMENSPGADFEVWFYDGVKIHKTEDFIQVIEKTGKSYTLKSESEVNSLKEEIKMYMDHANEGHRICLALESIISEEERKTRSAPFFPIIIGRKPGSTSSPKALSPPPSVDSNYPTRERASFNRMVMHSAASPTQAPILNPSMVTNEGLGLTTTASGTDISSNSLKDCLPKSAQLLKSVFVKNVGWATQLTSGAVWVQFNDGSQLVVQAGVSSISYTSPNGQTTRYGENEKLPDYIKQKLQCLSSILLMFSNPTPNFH
human recombinant Aurora B, sequence (Q96GD4 whole entry): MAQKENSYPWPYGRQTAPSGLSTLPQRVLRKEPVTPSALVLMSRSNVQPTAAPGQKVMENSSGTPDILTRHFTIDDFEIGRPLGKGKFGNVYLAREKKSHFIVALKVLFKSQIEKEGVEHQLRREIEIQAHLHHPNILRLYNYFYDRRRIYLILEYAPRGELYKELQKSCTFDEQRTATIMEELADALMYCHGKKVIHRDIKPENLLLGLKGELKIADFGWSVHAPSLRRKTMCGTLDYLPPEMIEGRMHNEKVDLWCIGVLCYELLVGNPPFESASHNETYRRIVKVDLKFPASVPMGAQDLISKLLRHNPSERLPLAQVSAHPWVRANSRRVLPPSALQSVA

[Aurora A IC50 (nM)]/[PLK4 IC50 (nM)] [1] | [Aurora B IC50 (nM)]/[PLK4 IC50 (nM)] [2] | IC50 (human recombinant PLK4) [nM] | Structure (SMILES) | IC50 (CHP-134 cells) [nM]
813.6599 | 340.4602 | 1.35 | CCS(=O)(=O)c1cnc(Nc2n[nH]c3cc([C@@H]4C[C@@]45C(=O)Nc4ccc(OC)cc45)ccc23)c(OC)c1 [Example 228, (1R,2S)-2-(3-{[5-(Ethanesulfonyl)-3-methoxypyridin-2-yl]amino}-1H-indazol-6-yl)-5′-methoxyspiro[cyclopropane-1,3′-indol]-2′(1′H)-one] | 180
12432.2103 | 213.4346 | 2.43 | COc1ccc2c(c1)[C@]1(C[C@H]1c1ccc3c(Nc4ccc(C(=O)NCC5CC5)nc4OC)n[nH]c3c1)C(=O)N2 [Example 230, N-(cyclopropylmethyl)-6-methoxy-5-({6-[(1R,2S)-5′-methoxy-2′-oxo-1′,2′-dihydrospiro[cyclopropane-1,3′-indol]-2-yl]-1H-indazol-3-yl}amino)pyridine-2-carboxamide] | 395
4955.7692 | 316.7307 | 1.56 | COc1ccc2c(c1)[C@]1(C[C@H]1c1ccc3c(Nc4ccc(C(=O)NC(C)C)nc4OC)n[nH]c3c1)C(=O)N2 [Example 231, 6-methoxy-5-({6-[(1R,2S)-5′-methoxy-2′-oxo-1′,2′-dihydrospiro[cyclopropane-1,3′-indol]-2-yl]-1H-indazol-3-yl}amino)-N-(propan-2-yl)pyridine-2-carboxamide] | 397
332.3068 | 107.2788 | 3.57 | COc1ccc2c(c1)[C@]1(C[C@H]1c1ccc3c(Nc4nn(C)c(=O)cc4OC)n[nH]c3c1)C(=O)N2 [Example 233, (1R,2S)-5′-methoxy-2-{3-[(4-methoxy-1-methyl-6-oxo-1,6-dihydropyridazin-3-yl)amino]-1H-indazol-6-yl)spiro[cyclopropane-1,3′-indol]-2′(1′H)-one] | 4800
608.9799 | 831.7349 | 2.29 | COc1ccc2c(c1)[C@]1(C[C@H]1c1ccc3c(Nc4cc(-c5ncco5)cnc4OC)n[nH]c3c1)C(=O)N2 [Example 234, (1R,2S)-5′-Methoxy-2-(3-{[2-methoxy-5-(1,3-oxazol-2-yl)pyridin-3-yl]amino}-1H-indazol-6-yl)spiro[cyclopropane-1,3′-indol]-2′(1′H)-one] | 276
536.1 | 582.2189 | 1.36 | COc1ccc2c(c1)[C@]1(C[C@H]1c1ccc3c(Nc4cc(C)c(C(=O)N(C)C)nc4OC)n[nH]c3c1)C(=O)N2 [Example 238, 6-methoxy-5-({6-[(1R,2S)-5′-methoxy-2′-oxo-1′,2′-dihydrospiro[cyclopropane-1,3′-indol]-2-yl]-1H-indazol-3-yl}amino)-N,N,3-trimethylpyridine-2-carboxamide] | 133
2066.9875 | 253.4697 | 2.49 | COc1ccc2c(c1)[C@]1(C[C@H]1c1ccc3c(Nc4cnc(S(C)(=O)=O)cc4OC)n[nH]c3c1)C(=O)N2 [Example 241, (1R,2S)-2-(3-{[6-(methanesulfonyl)-4-methoxypyridin-3-yl]amino}-1H-indazol-6-yl)-5′-methoxyspiro[cyclopropane-1,3′-indol]-2′(1′H)-one] | 1100
307.7159 | 129.0381 | 6.52 | COc1ccc2c(c1)[C@]1(C[C@H]1c1ccc3c(Nc4ncc(S(C)(=O)=O)nc4OC)n[nH]c3c1)C(=O)N2 [Example 242, (1R,2S)-2-(3-{[5-(methanesulfonyl)-3-methoxypyrazin-2-yl]amino}-1H-indazol-6-yl)-5′-methoxyspiro[cyclopropane-1,3′-indol]-2′(1′H)-one] | 5510
479.1122 | 164.5778 | 1.15 | COc1ccc2c(c1)[C@]1(C[C@H]1c1ccc3c(Nc4ccc(C(=O)N(C5CC5)C5CC5)nc4OC)n[nH]c3c1)C(=O)N2 [Example 243, N,N-dicyclopropyl-6-methoxy-5-({6-[(1R,2S)-5′-methoxy-2′-oxo-1′,2′-dihydrospiro[cyclopropane-1,3′-indol]-2-yl]-1H-indazol-3-yl}amino)pyridine-2-carboxamide] | 188
1578.3505 | 312.3 | 2.91 | COc1ccc2c(c1)[C@]1(C[C@H]1c1ccc3c(Nc4ccc(C(=O)NCC(F)F)nc4OC)n[nH]c3c1)C(=O)N2 [Example 244, N-(2,2-difluoroethyl)-6-methoxy-5-({6-[(1R,2S)-5′-methoxy-2′-oxo-1′,2′-dihydrospiro[cyclopropane-1,3′-indol]-2-yl]-1H-indazol-3-yl}amino)pyridine-2-carboxamide] | 545

Continued, compound first:

Structure (SMILES) | [Aurora A IC50 (nM)]/[PLK4 IC50 (nM)] [1] | [Aurora B IC50 (nM)]/[PLK4 IC50 (nM)] [2] | IC50 (human recombinant PLK4) [nM] | IC50 (CHP-134 cells) [nM]
COc1ccc2c(c1)[C@]1(C[C@H]1c1ccc3c(Nc4cc(S(=O)(=O)N5CCOCC5)ccc4OC)n[nH]c3c1)C(=O)N2 [Example 216, (1R,2S)-5′-methoxy-2-{3-[2-methoxy-5-(morpholine-4-sulfonyl)anilino]-1H-indazol-6-yl}spiro[cyclopropane-1,3′-indol]-2′(1′H)-one] | 7712 | 18601.19048 | 2.69 | 766
COc1ccc2c(c1)[C@]1(C[C@H]1c1ccc3c(Nc4nc5cccnc5cc4OC)n[nH]c3c1)C(=O)N2 [Example 217, (1R,2S)-5′-methoxy-2-{3-[(3-methoxy-1,5-naphthyridin-2-yl)amino]-1H-indazol-6-yl}spiro[cyclopropane-1,3′-indol]-2′(1′H)-one] | 416.7367 | 170.9840 | 1.19 | 450
COc1ccc2c(c1)[C@]1(C[C@H]1c1ccc3c(Nc4ccc(C(=O)N(C)OC)nc4OC)n[nH]c3c1)C(=O)N2 [Example 218, N,6-dimethoxy-5-({6-[(1R,2S)-5′-methoxy-2′-oxo-1′,2′-dihydrospiro[cyclopropane-1,3′-indol]-2-yl]-1H-indazol-3-yl}amino)-N-methylpyridine-2-carboxamide] | 806.5968 | 70.8586 | 0.955 | 73.8
COc1ccc2c(c1)[C@]1(C[C@H]1c1ccc3c(Nc4ccc(C(=O)NNC(C)C)nc4OC)n[nH]c3c1)C(=O)N2 [Example 219, 6-methoxy-5-({6-[(1R,2S)-5′-methoxy-2′-oxo-1′,2′-dihydrospiro[cyclopropane-1,3′-indol]-2-yl]-1H-indazol-3-yl}amino)-N′-(propan-2-yl)pyridine-2-carbohydrazide] | 763.5782 | 64.2571 | 2.5 | 510
COc1ccc2c(c1)[C@]1(C[C@H]1c1ccc3c(Nc4ccc(S(=O)(=O)N(C)C)nc4OC)n[nH]c3c1)C(=O)N2 [Example 222, 6-methoxy-5-({6-[(1R,2S)-5′-methoxy-2′-oxo-1′,2′-dihydrospiro[cyclopropane-1,3′-indol]-2-yl]-1H-indazol-3-yl}amino)-N,N-dimethylpyridine-2-sulfonamide] | 446.1368 | 546.4311 | 1.36 | 456
CCOc1nc(S(=O)(=O)N(C)C)ccc1Nc1n[nH]c2cc([C@@H]3C[C@@]34C(=O)Nc3ccc(OC)cc34)ccc12 [Example 223, 6-ethoxy-5-({6-[(1R,2S)-5′-methoxy-2′-oxo-1′,2′-dihydrospiro[cyclopropane-1,3′-indol]-2-yl]-1H-indazol-3-yl}amino)-N,N-dimethylpyridine-2-sulfonamide] | 1004.7743 | 445.3125 | 2.3 | 163
COc1ccc2c(c1)[C@]1(C[C@H]1c1ccc3c(Nc4cc(C(C)(C)O)cnc4OC)n[nH]c3c1)C(=O)N2 [Example 226, (1R,2S)-2-(3-{[5-(2-hydroxypropan-2-yl)-2-melhoxypyridin-3-yl]amino}-1H-indazol-6-yl)-5′-methoxyspiro[cyclopropane-1,3′-indol]-2′(1′H)-one] | 2759.6376 | 474.6155 | 4.75 | 2150
COc1ccc2c(c1)[C@]1(C[C@H]1c1ccc3c(Nc4ccc(C(=O)N5C6CCC5COC6)nc4OC)n[nH]c3c1)C(=O)N2 [Example 232, (1R,2S)-5′-methoxy-2-(3-{[2-methoxy-6-(3-oxa-8-azabicyclo[3.2.1]octane-8-carbonyl)pyridin-3-yl]amino}-1H-indazol-6-yl)spiro[cyclopropane-1,3′-indol]-2′(1′H)-one] | 651.7909 | 105.5179 | 1.03 | 141
